Test results: the NIST ThermoML archive (doi:10.1007/s10765-007-0223-x)
± gives the expanded uncertainty stated by the source.

Assay: xn = mol fraction of the nth substance listed
Conditions: 101 kPa, Liquid; for speed of sound: Single path-length method

COC(C)(C)C [2-methoxy-2-methylpropane] + c1ccccc1
Conditions | mass density, 295.65 K [kg/m3] | mass density, 298.15 K [kg/m3] | mass density, 300.65 K [kg/m3] | mass density, 303.15 K [kg/m3] | speed of sound, 298.15 K [m/s] | speed of sound, 300.65 K [m/s] | speed of sound, 303.15 K [m/s] | speed of sound, 305.65 K [m/s]
x1 = 0.052 | – | 864.111 ± 0.41 | 861.451 ± 0.42 | 858.785 ± 0.42 | 1281.3 ± 2.1 | 1269.7 ± 2.1 | 1258 ± 2.1 | 1246.5 ± 2.1
x1 = 0.111 | – | 853.986 ± 0.42 | 851.345 ± 0.43 | 848.697 ± 0.43 | 1262.6 ± 2.1 | 1251 ± 2.1 | 1239.5 ± 2.1 | 1228 ± 2.1
x1 = 0.202 | – | 838.954 ± 0.44 | 836.329 ± 0.45 | 833.698 ± 0.45 | 1234.8 ± 2.1 | 1223.2 ± 2.1 | 1211.7 ± 2.1 | 1200.3 ± 2.1
x1 = 0.303 | – | 823.323 ± 0.46 | 820.71 ± 0.47 | 818.089 ± 0.47 | 1205.8 ± 2.1 | 1194.3 ± 2.1 | 1182.8 ± 2.1 | 1171.4 ± 2.1
x1 = 0.397 | 812.151 ± 0.47 | 809.552 ± 0.48 | 806.945 ± 0.48 | 804.33 ± 0.49 | 1179.8 ± 2.1 | 1168.3 ± 2.1 | 1156.9 ± 2.1 | 1145.5 ± 2.1
x1 = 0.5 | 797.75 ± 0.49 | 795.155 ± 0.5 | 792.548 ± 0.5 | 789.936 ± 0.5 | 1152.5 ± 2.1 | 1141 ± 2.1 | 1129.6 ± 2.1 | 1118.2 ± 2.1
x1 = 0.596 | 784.966 ± 0.51 | 782.366 ± 0.51 | 779.76 ± 0.52 | 777.144 ± 0.52 | 1128.2 ± 2.1 | 1116.7 ± 2.1 | 1105.2 ± 2.1 | 1093.8 ± 2.1
x1 = 0.698 | 771.959 ± 0.53 | 769.356 ± 0.53 | 766.742 ± 0.53 | 764.119 ± 0.54 | 1103 ± 2.1 | 1091.5 ± 2.1 | 1080 ± 2.1 | 1068.6 ± 2.1
x1 = 0.791 | 760.733 ± 0.54 | 758.126 ± 0.55 | 755.506 ± 0.55 | 752.877 ± 0.55 | 1081.5 ± 2.1 | 1070 ± 2.1 | 1058.5 ± 2.1 | –
x1 = 0.902 | 747.886 ± 0.56 | 745.267 ± 0.56 | 742.638 ± 0.57 | 739.994 ± 0.57 | 1056.2 ± 2.1 | 1044.7 ± 2.1 | 1033.2 ± 2.1 | –
x1 = 0.95 | 742.485 ± 0.57 | 739.86 ± 0.57 | 737.224 ± 0.57 | 734.576 ± 0.58 | 1045.5 ± 2.1 | 1033.8 ± 2.1 | 1022.3 ± 2.1 | –
x1 = 1 | 737.036 ± 0.56 | 734.406 ± 0.57 | 731.766 ± 0.57 | 729.112 ± 0.58 | 1036.9 ± 2.1 | 1025.4 ± 2.1 | 1013.9 ± 2.1 | –
